Marks after values point to notes of the source that are not given here.
Legend:
[1] = system: HepG2 cells modeled with oleic acid; experiment: Cytotoxicity (MTT) on HepG2 cells modeled with oleic acid; type: cell-based; conditions: 24 h, 0.3 mmol/L oleic acid
Experimental: (§1) HepG2 cells in good growth condition were inoculated in a 6-well plate at 2*10^5 cells/mL, 1 mL per well. When cell adhesion rate reached 80%-90%, the medium was discarded. A blank group and a model group were set, where a complete medium was added to the blank group, 0.3 mmol/L oleic acid induction solution diluted with a complete medium was added to the model group, at 2 mL per well; after 24 hours of culture, the accumulation of lipid drops in the cells was observed by oil red 0 staining.
• a. HepG2 cells in good growth condition were inoculated in a 96-well plate at 5*10^4 cells/mL, 100 μL per well. When the cell adhesion rate reached 80%-90%, the medium was discarded. • b. MS and MC were each dissolved in dimethyl sulfoxide (DMSO) to prepare a 5 mg/mL of mother liquid, and the mother liquid was stored at −20° C. The 5 mg/mL of mother liquid was diluted with a complete medium containing 0.3 mmol/L of oleic acid to obtain MS sample concentrations or MC sample concentrations (2, 4, 6, 8, 10, 12 μg/mL) required for the experiment, ensuring that a final concentration of DMSO in each sample is 0.5%. • c. […]
After 24 h, the survival rate of HepG2 cells in each group was detected based on a MTT experiment method. • d. results are shown in FIG. 2.

[2] = system: HepG2 cells modeled with oleic acid; experiment: Triglyceride content in HepG2 cells modeled with oleic acid (triglyceride kit); type: cell-based; conditions: 24 h, 0.3 mmol/L oleic acid; for reduce the TG content in cells by: Example 3, 2 μg/mL
Experimental: • a. HepG2 cells in good growth condition were inoculated in a 6-well plate at 2*10^5 cells/mL, 1 mL per well, cultured for 12 h, and after the cells adhered to the wall, the medium was discarded. • b. after the medium was discarded, a blank group, a modeling group and a dosing group were set. • Blank control group: added with 2 mL of a complete medium per well; • Oleic acid modeling group: added with 2 mL of a complete medium containing 0.3 mmol/L of oleic acid per well; • MC low dose group: added with 2 mL of a complete medium containing 0.3 mmol/L of oleic acid and 2 μg/mL of Monascinol per well; • MC middle dose group: added with 2 mL of a complete medium containing 0.3 mmol/L of oleic acid and 4 μg/mL of Monascinol per well; • MC high dose group: added with 2 mL of a complete medium containing 0.3 mmol/L of oleic acid and 8 μg/mL of Monascinol per well; • After completing the administration, the cells of each group were cultured for 24 hours and then collected, a triglyceride kit (Beijing Applygen Technologies Inc.) was utilized to measure the content of triglyceride in HepG2 cells of each group. • c. results are shown in FIG. 3. Different letters indicate significant differences from the blank group, P<0.01.
Firstly, normal HepG2 cells were obtained, and HepG2 cells modeled with oleic acid were obtained according to the method in Example 1 (a concentration of oleic acid was 0.3 mmol/L).
(§2) On day 1, blank control group: normally cultured HepG2 cells without treatment; oleic acid modeling group (the concentration of oleic acid is 0.3 mmol/L): normally culture HepG2 cells modeled with oleic acid without treatment; MC group: HepG2 cells modeled with oleic acid were administered with 2 μg/mL of Monascinol, i.e., MC; MS group: HepG2 cells modeled with oleic acid were administered with 2 μg/mL of Monascin (MS).
After completing the administration, the cells of each group were cultured for 24 hours and then collected, a triglyceride kit (Beijing Applygen Technologies Inc.) was utilized to measure the content of triglyceride in HepG2 cells of each group, results are shown in FIG. 4.

[3] = system: HepG2 cells modeled with oleic acid; experiment: Oil red O staining of lipid drops in HepG2 cells modeled with oleic acid; type: cell-based; conditions: 2 μg/mL, inverted microscope ×400
Experimental: as §1, §2
Morphological observation was further carried out by oil red 0 staining, and the results are shown in FIGS. 5A-5C (inverted microscope×400), FIG. 5A is a diagram of lipid accumulation in HepG2 cells of an oleic acid modeling group; FIG. 5B is a diagram of lipid accumulation in HepG2 cells of an MS group; FIG. 5C is a diagram of lipid accumulation in HepG2 cells of an MC group. […] This is consistent with the test result of TG.

[4] = biological target: T1, pancrelipase (Type II, derived from a porcine pancreas) (Sus scrofa, UniProt P00591); experiment: Inhibitory activity on pancrelipase, 4-MUO substrate, fluorescence detection; type: biochemical; conditions: 4-MUO 0.1 mM, lipase 1 mg/mL, 30 mins at 25° C.
T1 construct: pancrelipase (Type II, derived from a porcine pancreas); from tissue; host or cells: porcine pancreas
T1 sequence (P00591 1-450): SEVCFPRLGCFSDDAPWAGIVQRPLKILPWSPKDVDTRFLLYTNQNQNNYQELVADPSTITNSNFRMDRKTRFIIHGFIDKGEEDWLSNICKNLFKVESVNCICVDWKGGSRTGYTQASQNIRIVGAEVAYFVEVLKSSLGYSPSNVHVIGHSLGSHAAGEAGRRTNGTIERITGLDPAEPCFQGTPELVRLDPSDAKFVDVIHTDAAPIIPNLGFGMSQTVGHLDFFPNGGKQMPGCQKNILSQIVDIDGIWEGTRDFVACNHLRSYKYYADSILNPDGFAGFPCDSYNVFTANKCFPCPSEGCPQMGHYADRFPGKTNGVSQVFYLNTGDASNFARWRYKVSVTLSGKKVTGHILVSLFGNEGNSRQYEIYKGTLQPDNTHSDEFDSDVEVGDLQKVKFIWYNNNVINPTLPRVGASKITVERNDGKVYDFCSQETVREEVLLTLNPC
Source text: In an experiment, 4-methylumbelliferyl oleate (4-MUO) was used as a substrate and a fluorescence detection method was used to evaluate the inhibitory activity of MC on pancrelipase (Type II, derived from a porcine pancreas).
The following groups were set (see also Table 1): • Blank group: no MC sample, only substrate, pancrelipase and Tris-HCL buffer; • Blank background group: no MC sample and pancrelipase, only substrate and Tris-HCL buffer; • Sample background group: no pancrelipase, only MC sample, substrate and Tris-HCL buffer; • Sample group: no Tris-HCL buffer, only MC sample, substrate and pancrelipase.
The inhibition rate was calculated according to the following formula: Inhibition rate (%)=[(A1−A2)−(A3−A4)]/(A1−A2)×100
A1: Fluorescence value in blank group; A2: Fluorescence value in blank background group; A3: Fluorescence value in sample group; and A4: Fluorescence value in sample background group.
Three parallel experiments were set for each group, in which the concentration of 4-MUO is 0.1 mM, and the MC samples were dissolved in DMSO (set 6 different concentrations: 5, 10, 20, 40, 80 and 160 μg/mL), the concentration of the lipase solution is 1 mg/mL. […] Therefore, the product 4-methylumbelliferone was determined under conditions of an excitation wavelength of 360±40 nm and an emission wavelength 460±40 nm. […]

[5] = biological target: T2, pancrelipase (Sus scrofa, UniProt P00591); experiment: Type of inhibition on pancrelipase (order of addition, Lineweaver-Burk double reciprocal plot); type: biochemical, porcine; conditions: 160 μg/mL MC, lipase 1 mg/mL
T2 construct: pancrelipase (Type II, derived from a porcine pancreas); from tissue; host or cells: porcine pancreas
T2 sequence (P00591 1-450): T1 sequence (P00591 1-450)
Experimental: According to different forms and characteristics of binding between enzymes and inhibitors, the inhibitions can be divided into two types: reversible inhibition and irreversible inhibition. The irreversible inhibition usually binds to a group in an enzyme protein by a relatively strong covalent bond to inactivate an enzyme. […] In this part of experiment, MS and AK were used as controls, and the type of inhibition of MC was determined by changing the order of adding reactants, the intervention concentrations of the three pigment inhibitors were all 80 μg/mL. […]
The type of inhibition of MC on pancrelipase was determined based on the results of Lineweaver-burk double reciprocal plot method as follows.
A basic process of experiment of drawing the Lineweaver-Burk curve was: under the condition of a determined lipase concentration (1 mg/mL), the enzymatic reaction rates were measured with a series of different substrate concentrations. […]

[6] = system: Golden Syrian hamsters fed with high-fat diet; experiment: High-fat diet hamster experiment, 10 weeks gavage; type: in vivo, Golden Syrian hamster
Experimental: 24 male Golden Syrian hamsters (hamsters for short) used in the animal experiment were purchased from Beijing Vital River Laboratory Animal Technology Co., Ltd., weighing 110-120 g, and aged 8 weeks.
After acclimation for a period of time, they were randomly divided into 3 groups, each with 8 animals, and the grouping and experiments were carried out as follows:
Every day starting from Day 1: • Normal group (NOR): take normal-chow diet freely, and gavage the same amount of CMC-Na solution as the MC group; • High fat group (HFD): take high-fat chow diet freely, and gavage the same amount of CMC-Na solution as the MC group; • MC group: take high-fat chow diet freely, and gavage MC (dissolved in CMC-Na solution) at a dose of 20 mg/kg body weight.
The weight and food intake of the hamsters were measured every week. After 10 weeks, tissue samples or serum samples were collected and the following analysis was performed.
TC and TG in the liver were extracted based on the Folch method, the TC and TG detection kits produced by Nanjing Jiancheng Bioengineering Institute was used to detect the contents of TC and TG in liver tissue according to the method provided in the instructions.
Cobas8000 E602 full-automatic biochemical analyzer (Roche Diagnostics Co., Ltd., Germany) was used to measure TC and TG in serum of collected serum samples.

[7] = high-fat diet, gavage 20 mg/kg body weight daily
[8] = histology, 100× and 400× light microscope, 20 mg/kg

SMILES: C/C=C/C1=CC2=C(CO1)C[C@]1(C)OC(=O)[C@H](C(O)CCCCC)[C@H]1C2 (stereo partly drawn) [MC, Monascinol]
- survival rate of cells ([1]; administration concentration 12 μg/mL): 66.7%
- TG content in the cells decreased by (vs modeling group) ([2]; Example 2, 2 μg/mL): 38.9%
- TG content in the cells decreased by (vs modeling group) ([2]; Example 2, 4 μg/mL): 34.6%
- TG content in the cells decreased by (vs modeling group) ([2]; Example 2, 8 μg/mL): 51.3%
- reduce the TG content in cells by [2]: 33.3%
- lipid drops in the cells, oil red O staining vs oleic acid modeling group [3]: reduce lipid drops in the cells and lighten color
- IC50 [4]: 219 µM
- type of inhibition on pancrelipase [5]: anti-competitive inhibition
- Fat index (weight of perirenal and periepididymal fat pad/weight of body) [6, 7]: 3.56 ± 0.26^a
- Liver tissue TC [6, 7]: 20.66 ± 0.58^c mg/g
- Liver tissue TG [6, 7]: 9.62 ± 0.34^a mg/g
- Liver weight [6, 7]: 4.21 ± 0.17^a g
- Serum TC [6, 7]: 4.73 ± 0.21^b mmol/L
- Serum TG [6, 7]: 2.97 ± 0.39^c mmol/L
- Weight gain [6, 7]: 22.33 ± 4.12^c g
- Weight of periepididymal fat pad [6, 7]: 2.99 ± 0.28^a g
- Weight of perirenal fat pad [6, 7]: 1.62 ± 0.19^a g
- adipose tissue sections: volume of periepididymal and perirenal adipose cells vs HFD group [6, 8]: significantly smaller volume than that in the HFD group
- liver tissue sections: lipid accumulation in liver cells vs HFD group [6, 8]: significantly reduced

SMILES: C/C=C/C1=CC2=C(CO1)C(=O)[C@]1(C)OC(=O)[C@H](C(=O)CCCCC)[C@H]1C2 [MS, Monascin]
- survival rate of cells ([1]; administration concentration 10 μg/mL or more): 36.7%
- reduce the TG content in cells by [2]: 26.3%

From US12544355B2, “Use of monascinol in preparation of fat-reducing product” (TIANJIN UNIVERSITY OF SCIENCE AND TECHNOLOGY, priority 2019, dated 2026)
